Results taken from ChEMBL document CHEMBL5137063, “Medicinal Chemistry and Chemical Biology of Nurr1 Modulators: An Emerging Strategy in Neurodegeneration” (J Med Chem, 2022).
pEC50, pKd: −log10 of the molar value. Each block holds one compound with its values, some of them ahead of it.

Experiments:
[1] = biological target: T1, Nuclear receptor subfamily 4 group A member 2 (Homo sapiens, UniProt P43354); experiment: Agonist activity at human Nurr1 measured by Gal4-Nurr1 hybrid reporter gene assay
[2] = biological target: T1, Nuclear receptor subfamily 4 group A member 2; experiment: Antagonist activity at full length human Nurr1 expressed in MN9D cells co-expressing 3xNBRE3-luciferase at 50 uM incubated for 18 hrs by luciferase transactivation assay relative to control; assay type: cell-based; parameters: scale not given: the % may be the effect or the level left
[3] = biological target: T1, Nuclear receptor subfamily 4 group A member 2; experiment: Antagonist activity at full length human Nurr1 expressed in HEK293T cells co-expressing 3xNBRE3-luciferase at 50 uM incubated for 18 hrs by luciferase transactivation assay relative to control; assay type: cell-based; parameters: scale not given: the % may be the effect or the level left
[4] = biological target: T1, Nuclear receptor subfamily 4 group A member 2; experiment: Agonist activity at Nurr1 in human SK-N-BE(2)-C cells measured by NBRE-based luciferase reporter gene assay; assay type: cell-based
[5] = biological target: T2, Nuclear receptor subfamily 4 group A member 2 (Rattus norvegicus, UniProt Q07917); experiment: Agonist activity at Nurr1 in rat N27-A cells measured by Gal4-based luciferase reporter gene assay; assay type: cell-based
[6] = biological target: T1, Nuclear receptor subfamily 4 group A member 2; experiment: Agonist activity at Nurr1 in human SK-N-BE(2)-C cells measured by Gal4-based luciferase reporter gene assay; assay type: cell-based
[7] = biological target: T3, Nuclear receptor subfamily 4 group A member 2 (Mus musculus, UniProt Q06219); experiment: Agonist activity at Nurr1 in mouse MN9D cells measured by NBRE-based luciferase reporter gene assay; assay type: cell-based
[8] = biological target: T2, Nuclear receptor subfamily 4 group A member 2; experiment: Agonist activity at Nurr1 in rat N27-A cells measured by NBRE-based luciferase reporter gene assay; assay type: cell-based
[9] = biological target: T3, Nuclear receptor subfamily 4 group A member 2; experiment: Agonist activity at Nurr1 in mouse MN9D cells measured by Gal4-based luciferase reporter gene assay; assay type: cell-based
[10] = biological target: T1, Nuclear receptor subfamily 4 group A member 2; experiment: Agonist activity at Nurr1 ligand binding domain (unknown origin) measured by Gal4-based reporter gene assay
[11] = biological target: T1, Nuclear receptor subfamily 4 group A member 2; experiment: Binding affinity towards Nurr1 ligand binding domain (unknown origin) measured by tryptophan fluorescence spectroscopy

T1 sequence (P43354 whole entry, the tested form may be a part): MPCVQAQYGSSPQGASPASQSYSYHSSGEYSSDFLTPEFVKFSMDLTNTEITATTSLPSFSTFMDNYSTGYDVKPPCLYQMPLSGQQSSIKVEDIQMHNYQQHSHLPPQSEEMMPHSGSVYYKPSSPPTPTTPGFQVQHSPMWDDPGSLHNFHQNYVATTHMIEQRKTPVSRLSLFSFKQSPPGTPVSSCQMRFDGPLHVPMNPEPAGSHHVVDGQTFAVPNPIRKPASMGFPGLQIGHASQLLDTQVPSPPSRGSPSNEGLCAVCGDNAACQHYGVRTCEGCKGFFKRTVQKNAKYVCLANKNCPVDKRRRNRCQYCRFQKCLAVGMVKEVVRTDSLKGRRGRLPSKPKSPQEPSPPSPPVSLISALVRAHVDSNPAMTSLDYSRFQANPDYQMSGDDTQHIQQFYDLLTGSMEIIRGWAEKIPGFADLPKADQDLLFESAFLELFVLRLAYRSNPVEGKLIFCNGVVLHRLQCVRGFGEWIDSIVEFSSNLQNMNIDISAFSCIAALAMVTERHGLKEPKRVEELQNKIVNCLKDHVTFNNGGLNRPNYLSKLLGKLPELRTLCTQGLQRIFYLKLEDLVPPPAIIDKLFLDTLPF
T3 sequence (Q06219 whole entry): as the sequence (P43354 whole entry, the tested form may be a part) above, with T131S, G134S, E354D counted along it
T2 sequence (Q07917 whole entry, the tested form may be a part): as the sequence (P43354 whole entry, the tested form may be a part) above, with T131S, P182R, E354D counted along it

Activity [2]: 25% | Activity [3]: 25%
Structure (SMILES): CC/C=C\C/C=C\C/C=C\C/C=C\C/C=C\C/C=C\CCC(=O)O

pEC50 [10]: 4.70
Structure (SMILES): CCN(CC)Cc1cc(Nc2ccnc3cc(Cl)ccc23)ccc1O [AMODIAQUINE]

pKd [11]: 4.30
Structure (SMILES): CCCCCCCC/C=C\CCCCCCCC(=O)O [OLEIC ACID]

pEC50 [4]: 5.30 | pEC50 [5]: 5.30 | pEC50 [6]: 5.30 | pEC50 [7]: 5.30 | pEC50 [8]: 5.30 | pEC50 [9]: 5.30
Structure (SMILES): CCCCC[C@H](O)/C=C/[C@H]1C=CC(=O)[C@@H]1CCCCCCC(=O)O [PROSTAGLANDIN A1]

More lines, now with the values behind:

Structure (SMILES): Fc1ccc(-c2c[nH]c3ccccc23)cc1
pEC50 [1]: 5.11

Structure (SMILES): CCCCC[C@H](O)/C=C/[C@H]1[C@H](O)CC(=O)[C@@H]1CCCCCCC(=O)O [ALPROSTADIL]
pEC50 [4]: 5.52 | pEC50 [5]: 5.52 | pEC50 [6]: 5.52 | pEC50 [7]: 5.52 | pEC50 [8]: 5.52 | pEC50 [9]: 5.52

Structure (SMILES): CCCCC/C=C\C/C=C\C/C=C\C/C=C\CCCC(=O)O [ARACHIDONIC ACID]
pKd [11]: 4.30

Structure (SMILES): CCCCC/C=C\C/C=C\CCCCCCCC(=O)O [LINOLEIC ACID]
pKd [11]: 4.30
